Assay [1] deals with MDA-MB-231. As to the kind of experiment: Inhibition of cell migration in human MDA-MB-231 cells measured upto 48 hrs by transwell chamber assay relative to control. Type of assay: functional. Also noted: scale not given: the % may be the effect or the level left.
Assay [2] deals with MDA-MB-231. As to the kind of experiment: Inhibition of cell invasion of human MDA-MB-231 cells at 10 uM incubated for 24 hrs by crystal violet staining based analysis. Type of assay: functional. Also noted: scale not given: the % may be the effect or the level left.
In assay [3] the test system is MDA-MB-231. As to the kind of experiment: Inhibition of cell adhesion in human MDA-MB-231 cells assessed as reduction in cell adhesion at 10 uM relative to control. Details: scale not given: the % may be the effect or the level left. Type of assay: functional.
Assay [4] in a line: Inhibition of ERK (unknown origin) at 100 uM by western blot assay relative to control. Conditions: Homo sapiens.
For assay [5], the target named is MAP kinase p38 (Homo sapiens) (UniProt O15264+Q15759+Q16539+P53778). As to the kind of experiment: Inhibition of p38-MAPK (unknown origin) at 30 uM relative to control. Type of assay: protein assay.
The next assay is filed under the species Homo sapiens. Kind of assay: Inhibition of PI3K/AKT/NF-kappaB (unknown origin) at 30 uM relative to control.
In a further assay the test system is KB. As to the kind of experiment: Antitumor activity against human KB cells assessed as inhibition of cell growth measured upto 96 hrs in presence of thymidine by Cell titer blue assay. Type of assay: functional. Details: scale not given: the % may be the effect or the level left.
A short description of assay [6]: Inhibition of Streptococcus sobrinus glycosyl transferase.
Assay [7] relates to MDA-MB-231. Kind of assay: Cytotoxicity against human MDA-MB-231 cells assessed as cell growth inhibition incubated for 48 hrs by SRB assay. The conditions noted are these: MDA-MB-231, 48 h. Type of assay: functional, cell-based.
Assay [8] has as its system MCF7. As to the kind of experiment: Antiproliferative activity against human MCF7 cells assessed as reduction in cell viability incubated for 72 hrs by MTT assay. Type of assay: functional, cell-based. Conditions: MCF7, 72 h.
Assay [9] relates to U-937. Kind of assay: Antiproliferative activity against human U-937 cells assessed as cell growth inhibition measured after 72 hrs. Type of assay: functional, cell-based. Conditions: U-937, 72 h.
Assay [10] relates to U-937. Kind of assay: Antiproliferative activity against human U-937 cells measured upto 72 hrs. Type of assay: functional, cell-based. The conditions noted are these: U-937, 72 h.
The subject of the next assay is K562. Kind of assay: Antiproliferative activity against human K562 cells assessed as reduction in cell viability incubated for 48 hrs by MTT assay. Type of assay: functional, cell-based. The conditions noted are these: K562, 48 h.
The subject of the next assay is A549. As to the kind of experiment: Cytotoxicity against human A549 cells assessed as reduction in cell viability incubated for 48 hrs by MTT assay. Type of assay: functional, cell-based. The conditions noted are these: A549, 48 h.
The test system of a further assay is HL-60. As to the kind of experiment: Cytotoxicity against human HL-60 cells assessed as reduction in cell growth incubated for 48 hrs by MTT assay. Type of assay: functional, cell-based. The conditions noted are these: HL-60, 48 h.
The test system of another assay is SMMC-7721. As to the kind of experiment: Cytotoxicity against human SMMC-7721 cells assessed as reduction in cell viability incubated for 48 hrs by MTT assay. Type of assay: functional, cell-based. The conditions noted are these: SMMC-7721, 48 h.
Assay [11] concerns MCF7. Kind of assay: Cytotoxicity against human MCF7 cells assessed as reduction in cell viability incubated for 48 hrs by MTT assay. Type of assay: functional, cell-based. Conditions: MCF7, 48 h.
The next assay relates to BEAS-2B. Kind of assay: Cytotoxicity against human BEAS-2B assessed as reduction in cell viability incubated for 72 hrs by MTT assay. Type of assay: functional, cell-based.
Assay [12] relates to MDA-MB-231. Kind of assay: Antitumor activity against human MDA-MB-231 cells xenografted in athymic nude mouse assessed as the inhibition of tumor growth at 50 mg/kg, sc administered daily once for 31 days relative to control. Type of assay: functional. Also noted: scale not given: the % may be the effect or the level left. Conditions: time 31 day.
The test system of another assay is U-266. As to the kind of experiment: Antiproliferative activity against human U-266 cells assessed as reduction in cell viability incubated for 96 hrs by ATPlite assay. Type of assay: functional, cell-based. The conditions noted are these: U-266, 96 h.

`O=C(O[C@@H]1Cc2c(O)cc(O)cc2O[C@@H]1c1cc(O)c(O)c(O)c1)c1cc(O)c(O)c(O)c1` [EPIGALOCATECHIN GALLATE]: the Activity in the assay on MDA-MB-231 [1] is given as 40%; in the assay with MDA-MB-231 [2], 56%; in the assay with MDA-MB-231 [3] it was 40%; with KB it was 70%. The figures for the inhibition (in assay [4]; in [5]; in the assay listed under Homo sapiens) were 25%, 45% and 25%, respectively. Also, the IC50 in assay [6] came to 89.5 µM; with MDA-MB-231 [7] it was 149 µM.

For `COc1cc(OC)c2c(c1)OC(c1ccccc1)[C@H](OC(=O)c1ccc(OC(C)=O)c(CC=C(C)C)c1)C2` (stereo not given in full), the IC50 with MCF7 [8] was 3.99 µM.

In the case of `O=C(Oc1cc(O)c2ccccc2c1)c1cc(O)c(O)c(O)c1`, in the assay with MDA-MB-231 [7], the IC50 was 41 µM.

In the case of `CCOc1cccc(C(=O)O[C@H]2COc3cc(OC)cc(OC)c3C2)c1`, the IC50 with MCF7 [8] is 8.19 µM.

On to `O=C(Nc1cccc(NC(=O)c2cccc(O)c2O)c1)c1cccc(O)c1O`, for which the IC50 in the assay on U-937 [9] came to 1.7 µM; in the assay with U-937 [10], 0.67 µM.

Consider `O=C(Oc1ccc(OC(=O)c2cc(O)c(O)c(O)c2)c2ccccc12)c1cc(O)c(O)c(O)c1`, for which, in the assay on MDA-MB-231 [7], the IC50 was found to be 104 µM.

As for `CCCCCCCCCCCCCCCC(=O)Oc1cc([C@H]2Oc3cc(O)cc(O)c3C[C@H]2OC(=O)c2cc(O)c(O)c(O)c2)cc(O)c1O`, in the assay with K562, the IC50 came out at 17 µM.

Take `O=C(Nc1ccccc1NC(=O)c1ccc(O)c(O)c1)c1ccc(O)c(O)c1`: the IC50 with U-937 [9] was 25 µM; in the assay with U-937 [10], 0.72 µM.

For the compound `O=C(Nc1c(-c2ccc(O)c(O)c2)oc2ccccc2c1=O)c1ccc(O)c(O)c1`, the IC50 with U-937 [9] stood at 37 µM; with U-937 [10], 0.38 µM.

In assay [6], `O=C(O[C@@H]1Cc2c(O)cc(O)cc2O[C@@H]1c1cc(O)c(=O)c2c(O)c(O)cc([C@H]3Oc4cc(O)cc(O)c4C[C@H]3O)c2c1)c1cc(O)c(O)c(O)c1` [THEAFLAVIN MONOGALLATES] gave an IC50 of 7.7 µM.

For `O=C(O[C@@H]1Cc2c(O)cc(O)cc2O[C@@H]1c1cc(O)c(=O)c2c(O)c(O)c(O)cc2c1)c1cc(O)c(O)c(O)c1`, half-maximal inhibition in [6] (IC50) was put at 11 µM.

For the compound `CCCC(=O)OC[C@H]1O[C@@H](Oc2c(O)cc(C(=O)O[C@@H]3Cc4c(O)cc(O)cc4O[C@@H]3c3cc(O)c(O)c(O)c3)cc2O)[C@H](OC(=O)CCC)[C@@H](OC(=O)CCC)[C@H]1OC(=O)CCC`, the IC50 in the assay with A549 amounted to 22.9 µM; in the assay with HL-60, 22.9 µM; in the assay with SMMC-7721, 22.9 µM; in the assay on MCF7 [11], 22.9 µM; in the assay on BEAS-2B, 40 µM.

In the case of `O=C(Oc1cc(OC(=O)c2cc(O)c(O)c(O)c2)c2ccccc2c1)c1cc(O)c(O)c(O)c1`, the IC50 in the assay on MDA-MB-231 [7] stood at 77 µM.

In the case of `CC(=O)Oc1cc(OC(C)=O)c2c(c1)O[C@H](c1cc(OC(C)=O)c(OC(C)=O)c(OC(C)=O)c1)[C@H](OC(=O)c1cc(OC(C)=O)c(OC(C)=O)c(OC(C)=O)c1)C2`, the Activity in the assay with MDA-MB-231 [12] turned out to be 54%.

For the compound `[N-]=[N+]=NC[C@@H]1O[C@H](c2c(O)cc(O)c3c2O[C@H](c2cc(O)c(O)c(O)c2)[C@H](OC(=O)c2cc(O)c(O)c(O)c2)C3)[C@H](O)[C@@H](O)[C@@H]1O`, the IC50 in the assay with U-266 is 15 µM.

For the origin of these results see ChEMBL document CHEMBL5335789, “Tea-break with epigallocatechin gallate derivatives - Powerful polyphenols of great potential for medicine” (Eur J Med Chem, 2023).
